Legend:
NCI-H358 [1] = assay: Antitumor activity against human NCI-H358 cells xenografted in Balb/c nude mouse assessed as tumor growth inhibition at 15 mg/kg measured after 27 days by vernier caliper based assay relative to control; format: functional; details: NCI-H358, 648 h, time 27 day, read-out: TGI
MIA PaCa-2 = assay: Antiproliferative activity against human MIA PaCa-2 cells harbouring KRAS G12C mutant by CellTiter-Glo assay; format: functional, cell-based
A-375 = assay: Antiproliferative activity against human A-375 cells by CellTiter-Glo assay; format: functional, cell-based
NCI-H358 [2] = assay: Antitumor activity against human NCI-H358 cells xenografted in Balb/c nude mouse assessed as tumor growth inhibition at 5 mg/kg measured after 27 days by vernier caliper based assay relative to control; format: functional; details: NCI-H358, 648 h, time 27 day, read-out: TGI
[3] = test system: GTPase KRas (Homo sapiens), P01116 [G12C]; assay: Inhibition of KRAS G12C mutant (1 to 169 residues) (unknown origin) at 5 uM incubated for 1 min by Mass spectrometry reactivity assay
[4] = test system: GTPase KRas (Homo sapiens), P01116 [G12C]; assay: Inhibition of KRAS G12C mutant (unknown origin) at 10 uM relative to control
GTPase KRas [5] = target: T1, GTPase KRas (Homo sapiens, UniProt P01116, G12C); assay: Inhibition of KRAS G12C mutant in human MIA PaCa-2 cells measured after 6 hrs; format: cell-based
GTPase KRas [6] = target: T1, GTPase KRas; assay: Inhibition of KRAS G12C mutant in human NCI-H358 cells measured after 6 hrs; format: cell-based
NCI-H358 [7] = assay: Antiproliferative activity against human NCI-H358 cells harbouring KRAS G12C mutant by CellTiter-Glo assay; format: functional, cell-based
GTPase KRas [8] = target: T1, GTPase KRas; assay: Inhibition of KRAS G12C mutant in human HCC1171 cells; format: cell-based
GTPase KRas [9] = target: T1, GTPase KRas; assay: Inhibition of KRAS G12C mutant (unknown origin) by HTRF method
[10] = test system: GTPase KRas (Homo sapiens), P01116 [G12C]; assay: Inhibition of KRAS G12C mutant (unknown origin); details: concentration not given here
GTPase KRas [11] = target: T1, GTPase KRas; assay: Inhibition of KRAS G12C mutant in human NCI-H2030 cells; format: cell-based
[12] = test system: von Hippel-Lindau disease tumor suppressor/GTPase KRas (Homo sapiens), P01116+P40337 [G12C]; assay: PROTAC activity at VHL/KRAS G12C mutant in human NCI-H2030 cells assessed as induction of KRAS G12C degradation relative to control; format: cell-based
GTPase KRas [13] = target: T1, GTPase KRas; assay: Inhibition of KRAS G12C mutant in human NCI-H23 cells; format: cell-based
[14] = target: T2, von Hippel-Lindau disease tumor suppressor/GTPase KRas (Homo sapiens, UniProt P01116+P40337, G12C); assay: PROTAC activity at VHL/KRAS G12C mutant in human NCI-H2030 cells assessed as induction of KRAS G12C degradation; format: cell-based
[15] = target: T2, von Hippel-Lindau disease tumor suppressor/GTPase KRas; assay: PROTAC activity at VHL/KRAS G12C mutant in human NCI-H23 cells assessed as induction of KRAS G12C degradation; format: cell-based
[16] = test system: von Hippel-Lindau disease tumor suppressor/GTPase KRas (Homo sapiens), P01116+P40337 [G12C]; assay: PROTAC activity at VHL/KRAS G12C mutant in human NCI-H23 cells assessed as induction of KRAS G12C degradation relative to control; format: cell-based
[17] = test system: GTPase KRas (Homo sapiens), P01116 [G12C]; assay: Inhibition of KRAS G12C mutant (unknown origin) at 5 uM relative to control
[18] = test system: GTPase KRas (Homo sapiens), P01116 [G12C]; assay: Inhibition of his tagged KRAS G12C mutant (1 to 169 residues) (unknown origin) by RapidFire mass spectrometric analysis; details: concentration not given here
[19] = Stability in monkey whole blood assessed as half life by LC/MS/MS analysis; format: ADME, tissue-based, Macaca mulatta; details: rhesus monkey
[20] = test system: GTPase KRas (Homo sapiens), P01116 [G12C]; assay: Binding affinity to KRAS G12C mutant (unknown origin) measured after 3 mins
[21] = Stability in dog whole blood assessed as half life by LC/MS/MS analysis; format: ADME, tissue-based, Canis lupus familiaris

C=CC(=O)N1CCN(c2ncnc3c(=O)n(-c4c(N)c(Cl)cc(Cl)c4F)c(C(F)(F)F)cc23)CC1
inhibition in vivo at 15 mg/kg (NCI-H358 [1]): 116% | IC50 (MIA PaCa-2): 70 µM | IC50 (A-375): 7.32 µM | inhibition in vivo at 5 mg/kg (NCI-H358 [2]): 107%

C=CC(=O)N1CCN(c2nc(O[C@@H]3CN(C)C[C@H]3OC)nc3c(Oc4c(Cl)c(Cl)cc5[nH]ncc45)nc(Cl)cc23)CC1
inhibition [3]: 82%

C=CC(=O)N1CCN(c2nc(N3CC(N(C)C)C3)nc3c2C[C@@H](C)[C@H](c2c(Cl)c(C)cc4[nH]ccc24)C3)C[C@H]1C
inhibition [4]: 80% | IC50 (GTPase KRas [5]): 0.06 µM | IC50 (GTPase KRas [6]): 0.064 µM

C=CC(=O)N1CCN(c2ncnc3c(=O)n(-c4c(O)cccc4F)c(C(F)(F)F)cc23)CC1
IC50 (MIA PaCa-2): 6.48 µM | IC50 (A-375): > 50 µM | IC50 (NCI-H358 [7]): 5.36 µM

C=CC(=O)N1CCN(c2nc(OC[C@@H]3CCCN3C)nc3c2C[C@@H](C)C(c2cc(O)cc4ccccc24)C3)[C@@H](C)C1 (stereo partly drawn)
IC50 (GTPase KRas [8]): < 0.006 µM | IC50 (GTPase KRas [9]): < 0.01 µM

C=CC(=O)N1CCN(c2ncnc3c(F)c(-c4c(O)cccc4F)c(Cl)cc23)CC1
inhibition in vivo at 15 mg/kg (NCI-H358 [1]): 52%

C=CC(=O)N1CCN(c2nc(OCCN3CCCC3=O)nc3c(F)c(-c4c(O)cccc4F)c(Cl)cc23)CC1
inhibition [10]: > 90%

C=C(F)C(=O)N1CCN(c2nc(CO[C@@H]3CCCN3CCC(=O)NCCOCCOCCC(=O)N[C@@H](C(=O)N3[C@H](O)CC[C@H]3C(=O)NCc3ccc(-c4scnc4C)cc3)C(C)(C)C)nc3c2CCN(c2cccc4cccc(Cl)c24)C3)C[C@@H]1CC#N
EC50 (GTPase KRas [11]): > 10 µM | Emax [12]: 30% | EC50 (GTPase KRas [13]): 1.3 µM

C=C(F)C(=O)N1CCN(c2nc(CO[C@@H]3CCCN3CCCOCCC(=O)N[C@@H](C(=O)C3N[C@H](C(=O)NCc4ccc(-c5scnc5C)cc4)C[C@H]3O)C(C)(C)C)nc3c2CCN(c2cccc4cccc(Cl)c24)C3)C[C@@H]1CC#N (stereo partly drawn)
EC50 (GTPase KRas [11]): 3.8 µM | Emax [12]: 75% | DC50 [14]: 0.59 µM | DC50 [15]: 0.76 µM | Emax [16]: 90% | EC50 (GTPase KRas [13]): 2.9 µM

C=CC(=O)N1CCN(c2nc(N3CC(N(C)C)C3)nc3c2C[C@@H](C)C(c2c(C)c(Cl)cc4[nH]ncc24)C3)CC1 (stereo partly drawn)
inhibition [17]: 78% | IC50 (GTPase KRas [5]): 0.068 µM | IC50 (GTPase KRas [6]): 0.102 µM

C=CC(=O)N1CCN(c2nc(Oc3cccc4c3CCN(C)C4)nc3c(Oc4c(Cl)c(F)cc5[nH]ncc45)nccc23)CC1
inhibition [3]: 80%

C=CC(=O)N1CCN(c2c3c(nc4c(F)c(-c5c(O)cccc5F)c(Cl)cc24)NC(=O)NC3)CC1
inhibition [18]: > 50%

C=CC(=O)N1CCN(c2nc(OCCN3CC(F)(F)C3)nc3c(F)c(-c4c(O)cccc4F)c(Cl)cc23)CC1
half-life [19]: 7.8 h | Activity [20]: > 90% | half-life [21]: 3 h

C=CC(=O)N1C[C@H](C)N(c2nc(OCCN3CC(F)(F)C3)nc3c(F)c(-c4c(O)cccc4F)c(Cl)cc23)C[C@H]1C
half-life [19]: 7.8 h | Activity [20]: > 90% | half-life [21]: 3 h

C=CC(=O)N1C[C@H](C)N(c2nc(N3CC(N(C)C)C3)nc3c(F)c(-c4c(C)ccc5cn[nH]c45)c(Cl)cc23)C[C@H]1C
half-life [19]: 3.9 h | Activity [20]: > 90% | half-life [21]: 5.95 h

— ChEMBL document CHEMBL5523694, “Research progress on small molecule inhibitors targeting KRAS G12C with acrylamide structure and the strategies for solving KRAS inhibitor resistance” (Bioorg Med Chem, 2024)
